From US20180000085A1, “USE OF PICOLINAMIDE COMPOUNDS WITH FUNGICIDAL ACTIVITY” (DOW AGROSCIENCES LLC, priority 2014, published 2018)

How the values were obtained:
Puccinia triticina = assay: Wheat brown rust (PUCCRT) disease control on wheat seedlings; assay type: in vivo; parameters: key to PUCCRT 3DC, HV activity at 100 ppm (% control rating) / PUCCRT disease control, 3DC / PUCCRT 1DP disease control rating, HV activity / PUCCRT 3DC disease control rating, HV activity / PUCCRT 3DC, LV activity at 125.1 g/H (% Control rating) / PUCCRT 1DP, LV activity at 125.1 g/H (% Control rating) / PUCCRT 3DC disease control rating, LV activity at 125.1 g/H / PUCCRT 1DP disease control rating, LV activity at 125.1 g/H / PUCCRT 3DC disease control rating, HV activity at 100 ppm / PUCCRT 1DP disease control rating, HV activity at 100 ppm / HV activity at 100 ppm PUCCRT 3DC (disease control rating) / LV activity at 125.1 g/H PUCCRT 1DP (disease control rating) / LV activity at 125.1 g/H PUCCRT 3DC (disease control rating): A: > 80; B: ≤ 80; C: Not Tested; D: No Activity Observed in the Reported Assay; conditions: for PUCCRT 1DP disease control rating, HV activity / PUCCRT 3DC disease control rating, HV activity: HV application at 100 ppm; for PUCCRT 1DP disease control rating, HV activity / PUCCRT 1DP disease control rating, LV activity / PUCCRT 1DP, LV activity at 125.1 g/H (% Control rating): 1 Day Protectant; for PUCCRT 1DP disease control rating, HV activity / PUCCRT 3DC disease control rating, HV activity / PUCCRT 1DP disease control rating, LV activity / PUCCRT 3DC disease control rating, LV activity: wheat brown rust; for PUCCRT 3DC disease control rating, HV activity / PUCCRT 3DC disease control rating, LV activity / PUCCRT 3DC, LV activity at 125.1 g/H (% Control rating): 3 Day Curative; for PUCCRT 1DP disease control rating, LV activity / PUCCRT 3DC disease control rating, LV activity: Low volume application at 125.1 g/H; for PUCCRT 1DP, LV activity at 125.1 g/H (% Control rating) / PUCCRT 3DC, LV activity at 125.1 g/H (% Control rating): low volume application
Zymoseptoria tritici = assay: Leaf blotch of wheat (SEPTTR) disease control on wheat seedlings; assay type: in vivo; parameters: key to SEPTTR 1DP, HV activity at 100 ppm (% control rating) / SEPTTR 3DC, HV activity at 100 ppm (% control rating) / SEPTTR disease control, 1DP / SEPTTR disease control, 3DC / SEPTTR 1DP disease control rating, HV activity / SEPTTR 3DC disease control rating, HV activity / SEPTTR 3DC, LV activity at 125.1 g/H (% Control rating) / SEPTTR 1DP, LV activity at 125.1 g/H (% Control rating) / SEPTTR 1DP disease control rating, LV activity at 125.1 g/H / SEPTTR 3DC disease control rating, LV activity at 125.1 g/H / SEPTTR 3DC disease control rating, HV activity at 100 ppm / SEPTTR 1DP disease control rating, HV activity at 100 ppm / HV activity at 100 ppm SEPTTR 3DC (disease control rating) / HV activity at 100 ppm SEPTTR 1DP (disease control rating) / LV activity at 125.1 g/H SEPTTR 1DP (disease control rating) / LV activity at 125.1 g/H SEPTTR 3DC (disease control rating): A: > 80; B: ≤ 80; C: Not Tested; D: No Activity Observed in the Reported Assay; conditions: for SEPTTR 1DP disease control rating, HV activity / SEPTTR 3DC disease control rating, HV activity: HV application at 100 ppm; for SEPTTR 1DP disease control rating, HV activity / SEPTTR 1DP disease control rating, LV activity / SEPTTR 1DP, LV activity at 125.1 g/H (% Control rating): 1 Day Protectant; for SEPTTR 1DP disease control rating, HV activity / SEPTTR 3DC disease control rating, HV activity / SEPTTR 1DP disease control rating, LV activity / SEPTTR 3DC disease control rating, LV activity: wheat leaf blotch; for SEPTTR 3DC disease control rating, HV activity / SEPTTR 3DC disease control rating, LV activity / SEPTTR 3DC, LV activity at 125.1 g/H (% Control rating): 3 Day Curative; for SEPTTR 1DP disease control rating, LV activity / SEPTTR 3DC disease control rating, LV activity: Low volume application at 125.1 g/H; for SEPTTR 1DP, LV activity at 125.1 g/H (% Control rating) / SEPTTR 3DC, LV activity at 125.1 g/H (% Control rating): low volume application

Row | SMILES | PUCCRT 1DP disease control rating, HV activity (Puccinia triticina) | PUCCRT 3DC disease control rating, HV activity (Puccinia triticina) | SEPTTR 1DP disease control rating, HV activity (Zymoseptoria tritici) | SEPTTR 3DC disease control rating, HV activity (Zymoseptoria tritici) | PUCCRT 1DP disease control rating, LV activity (Puccinia triticina) | PUCCRT 3DC disease control rating, LV activity (Puccinia triticina) | SEPTTR 1DP disease control rating, LV activity (Zymoseptoria tritici) | SEPTTR 3DC disease control rating, LV activity (Zymoseptoria tritici) | PUCCRT 1DP, LV activity at 125.1 g/H (% Control rating) (Puccinia triticina) | PUCCRT 3DC, LV activity at 125.1 g/H (% Control rating) (Puccinia triticina) | SEPTTR 1DP, LV activity at 125.1 g/H (% Control rating) (Zymoseptoria tritici) | SEPTTR 3DC, LV activity at 125.1 g/H (% Control rating) (Zymoseptoria tritici)
1 | COc1ccnc(C(=O)NC(C)C(=O)OC(C)C(Oc2cccc3ccccc23)C(C)C)c1O (stereo not drawn) [Cmpd 434] | A (> 80) | D | A (> 80) | D |  |  |  |  |  |  |  | 
2 | CCCOC(C(C)C)C(C)OC(=O)C(C)NC(=O)c1nccc(OC)c1O (stereo not drawn) [Cmpd 435] | B (≤ 80) | B (≤ 80) | D | D |  |  |  |  |  |  |  | 
3 | COc1ccnc(C(=O)NC(C)C(=O)OC(C)C(Oc2ccccc2)c2cccs2)c1O (stereo not drawn) [Cmpd 436] | B (≤ 80) | B (≤ 80) | A (> 80) | B (≤ 80) |  |  |  |  |  |  |  | 
4 | C=CCC(Oc1ccccc1)C(C)OC(=O)C(C)NC(=O)c1nccc(OC)c1O (stereo not drawn) [Cmpd 437] | A (> 80) | A (> 80) | B (≤ 80) | A (> 80) |  |  |  |  |  |  |  | 
5 | CCCC(Oc1ccccc1)C(C)OC(=O)C(C)NC(=O)c1nccc(OC)c1O (stereo not drawn) [Cmpd 438] | A (> 80) | A (> 80) | A (> 80) | A (> 80) |  |  |  |  |  |  |  | 
6 | C=CCC(Oc1ccc(Cl)cc1Cl)C(C)OC(=O)C(C)NC(=O)c1nccc(OC)c1O (stereo not drawn) [Cmpd 439] | A (> 80) | A (> 80) | B (≤ 80) | D |  |  |  |  |  |  |  | 
7 | CCC(C)C(Oc1ccccc1)C(C)OC(=O)C(C)NC(=O)c1nccc(OC)c1O (stereo not drawn) [Cmpd 440] | A (> 80) | A (> 80) | A (> 80) | A (> 80) |  |  |  |  |  |  |  | 
8 | COc1ccnc(C(=O)NC(C)C(=O)OC(C)C(OCC2CC2)c2cccc(-c3ccccc3)c2)c1O (stereo not drawn) [Cmpd 442] | B (≤ 80) | B (≤ 80) | D | B (≤ 80) |  |  |  |  |  |  |  | 
9 | CCCC(NC(=O)c1nccc(OC)c1OCOC(C)=O)C(=O)OC(C)C(CCc1ccccc1)OCC(C)C (stereo not drawn) [Cmpd 444] | A (> 80) | B (≤ 80) | A (> 80) | A (> 80) |  |  |  |  |  |  |  | 
10 | CCC(Cc1ccccc1)C(OCC(C)C)C(C)OC(=O)CNC(=O)c1nccc(OC)c1OCOC(C)=O (stereo not drawn) [Cmpd 445] | A (> 80) | A (> 80) | B (≤ 80) | D |  |  |  |  |  |  |  | 
11 | CCCOC(CC)C(Oc1ccccc1)C(C)OC(=O)C(NC(=O)c1nccc(OC)c1OCOC(C)=O)C(C)C (stereo not drawn) [Cmpd 447] | A (> 80) | A (> 80) | A (> 80) | B (≤ 80) |  |  |  |  |  |  |  | 
12 | CCCOC(CC)C(Oc1ccccc1)C(C)OC(=O)C(CC(C)C)NC(=O)c1nccc(OC)c1OCOC(C)=O (stereo not drawn) [Cmpd 448] | A (> 80) | B (≤ 80) | B (≤ 80) | B (≤ 80) |  |  |  |  |  |  |  | 
13 | CCCOC(CC)C(Oc1ccccc1)C(C)OC(=O)C(NC(=O)c1nccc(OC)c1OCOC(C)=O)C(C)CC (stereo not drawn) [Cmpd 449] | A (> 80) | A (> 80) | A (> 80) | B (≤ 80) |  |  |  |  |  |  |  | 
14 | CCCOC(CC)C(Oc1ccccc1)C(C)OC(=O)C(C)NC(=O)c1nccc(OC)c1OC(C)=O (stereo not drawn) [Cmpd 450] | A (> 80) | A (> 80) | A (> 80) | A (> 80) | A (> 80) | A (> 80) | B (≤ 80) | B (≤ 80) |  |  |  | 
15 | CCCOC(CC)C(Oc1ccccc1)C(C)OC(=O)C(NC(=O)c1nccc(OC)c1OC(C)=O)C(C)C (stereo not drawn) [Cmpd 451] | A (> 80) | A (> 80) | B (≤ 80) | A (> 80) |  |  |  |  |  |  |  | 
16 | CCCOC(CC)C(Oc1ccccc1)C(C)OC(=O)C(CC(C)C)NC(=O)c1nccc(OC)c1OC(C)=O (stereo not drawn) [Cmpd 452] | A (> 80) | A (> 80) | B (≤ 80) | B (≤ 80) |  |  |  |  |  |  |  | 
17 | CCCOC(CC)C(Oc1ccccc1)C(C)OC(=O)C(NC(=O)c1nccc(OC)c1OC(C)=O)C(C)CC (stereo not drawn) [Cmpd 453] | A (> 80) | A (> 80) | B (≤ 80) | B (≤ 80) |  |  |  |  |  |  |  | 
18 | CCC(Cc1ccccc1)C(OCC(C)C)C(C)OC(=O)C(C)NC(=O)c1nccc(OC)c1OCOC(C)=O (stereo not drawn) [Cmpd 454] | A (> 80) | A (> 80) | A (> 80) | A (> 80) |  |  |  |  |  |  |  | 
19 | C=CC(OCCC)C(Oc1ccccc1)C(C)OC(=O)C(C)NC(=O)c1nccc(OC)c1OC(C)=O (stereo not drawn) [Cmpd 456] | A (> 80) | A (> 80) | A (> 80) | A (> 80) | A (> 80) | A (> 80) | A (> 80) | A (> 80) |  |  |  | 
20 | CC[C@H](Cc1ccc(F)cc1)[C@@H](Oc1ccccc1)[C@H](C)OC(=O)[C@H](C)NC(=O)c1nccc(OC)c1OC(C)=O [Cmpd 469] |  |  |  |  |  |  |  |  | A (> 80) | A (> 80) | A (> 80) | A (> 80)
21 | CC[C@H](Cc1ccc(OC)cc1)[C@@H](Oc1ccccc1)[C@H](C)OC(=O)[C@H](C)NC(=O)c1nccc(OC)c1OCOC(C)=O [Cmpd 470] |  |  |  |  |  |  |  |  | A (> 80) | A (> 80) | A (> 80) | A (> 80)
22 | CC[C@H](Cc1ccc(F)cc1)[C@@H](Oc1ccccc1)[C@H](C)OC(=O)[C@H](C)NC(=O)c1nccc(OC)c1OCOC(C)=O [Cmpd 471] |  |  |  |  |  |  |  |  | A (> 80) | A (> 80) | A (> 80) | A (> 80)
23 | CC[C@H](Cc1ccc(OC)cc1)[C@@H](Oc1ccccc1)[C@H](C)OC(=O)[C@H](C)NC(=O)c1nccc(OC)c1OC(=O)C(C)C [Cmpd 472] |  |  |  |  |  |  |  |  | A (> 80) | B (≤ 80) | A (> 80) | A (> 80)
24 | CC[C@H](Cc1ccc(F)cc1)[C@@H](Oc1ccccc1)[C@H](C)OC(=O)[C@H](C)NC(=O)c1nccc(OC)c1OC(=O)C(C)C [Cmpd 473] |  |  |  |  |  |  |  |  | A (> 80) | D | B (≤ 80) | B (≤ 80)
25 | CCC(CCOC)C(Oc1ccccc1)C(C)OC(=O)C(C)NC(=O)c1nccc(OC)c1OC(C)=O (stereo not drawn) [Cmpd 481] |  |  |  |  |  |  |  |  | A (> 80) | A (> 80) | B (≤ 80) | A (> 80)
